Results as given in PMC7696216, “Bi-Functional Alginate Oligosaccharide–Polymyxin Conjugates for Improved Treatment of Multidrug-Resistant Gram-Negative Bacterial Infections” (Pharmaceutics, 2020).
Where two headings read alike, the source gives them in different places. Positions of bridges follow the written chain, without caps; N, C: chain ends. Non-standard residues stand in square brackets, D forms with d. Residues, ends and D or L forms follow the SMILES beside them. *: point of attachment. X1 = CC[C@H](C)CCCCC(=O)*; Dab = NCC[C@H](N)C(=O)O

How the values were obtained:
[1] = test system: P. aeruginosa MDR 301; format: cell-based, Pseudomonas aeruginosa
Description: (§1) The minimum inhibitory concentration (MIC) of colistin (as sulphate salt) and polymyxin B and their conjugates was determined using the broth microdilution method in MH broth in accordance with standard guidelines. Test organisms were suspended in MH broth (100 µL, 5 × 10^5 colony forming units (CFU)/mL) and incubated in 96-well microtitre plates in serial two-fold dilutions of the test compounds. […] Results were expressed as mode (n = 3). […] Selective activities of the polymyxins and OligoG–polymyxin conjugates were calculated as follows:Selectivity index (SI) = IC50 (μg/mL)/MIC (μg/mL).
(§2) In addition, alginate oligomer–colistin conjugates (3 mg/mL) were incubated in PBS at pH 7 containing bacterial alginate lyase (1 and 10 U/mL) at 37 °C for 24 h, before preparing microtitre plates as described above.
(§3) To study the antimicrobial efficacy of test compounds under more clinically relevant conditions, the MIC protocol was performed using AS medium instead of MH broth. The plates were incubated with resazurin as described above.

[2] = cited from earlier work
Description: In a clinical setting, binding of colistin to sputum biomolecules (e.g., mucin) in the airways could negatively impact antibiotic effectiveness and availability. […] A four-fold increase in the MIC of colistin was also reported when the assay was conducted in AS medium instead of MH broth, thought to be caused by bacterial growth disruption, structural modifications of lipopolysaccharides or direct colistin–mucin interactions. Alt ...

[3] = test system: P. aeruginosa MDR 301; test: Bacterial growth curves (48 h); format: cell-based, Pseudomonas aeruginosa; conditions: absorbance 600 nm hourly for 48 h, n = 3
Excerpt: Results were expressed as mean values (n = 3).

[4] = test system: A. baumannii 7789; format: cell-based, Acinetobacter baumannii
Description: as §1, §2, §3

[5] = test system: E. coli AIM-1; test: MIC, broth microdilution; format: cell-based, Escherichia coli
Description: as §1, §2

[6] = test system: P. aeruginosa NH57388A; test: MIC, broth microdilution; format: cell-based, Pseudomonas aeruginosa
Description: as §1, §3

[7] = test system: E. coli 5702; test: MIC, broth microdilution; format: cell-based, Escherichia coli
Description: as §1, §3

[8] = test system: E. coli IR57; format: cell-based, Escherichia coli
Description: as §1
(§4) To account for turbidity caused by mucin, resazurin dye solution (30 µL, 0.01% w/v in dH2O) was added to each well and incubated for a further 3 h at 37 °C. Colour changes were observed and recorded.
as §3

[9] = test system: A. baumannii MDR ACB; format: cell-based, Acinetobacter baumannii; conditions: for MIC: resazurin read-out
Description: as §1, §4

[10] = test system: K. pneumoniae IR25; format: cell-based, Klebsiella pneumoniae; conditions: for MIC: resazurin read-out
Description: as §1, §4

[11] = test system: A. baumannii 7789; test: Time-to-kill (TTK) in PK–PD model; format: cell-based, Acinetobacter baumannii; conditions: 0.25 µg/mL colistin base (colistin sulphate at MIC; OligoG–E–colistin at 2 × MIC), n = 3
Description: A modified experimental set-up was used to investigate the concentration- and time-dependent antimicrobial activity of test compounds using a TTK assay (48 h). […] The OC contained MH broth inoculated with A. baumannii 7789 (5 × 10^5 CFU/mL). Samples were collected from the OC (0, 2, 4, 6, 24 and 48 h) and colony counts (CFU/mL) determined using drop counts. Treatments were considered bactericidal if the reduction in viable bacterial counts was ≥3 log10 CFU/mL (equivalent to 99.9% of the initial inoculum) and bacteriostatic if the decrease was <3 log10 CFU/mL [33, 34]. Growth (no test compounds) and sterility (no bacteria) controls were also performed.

[12] = test system: P. aeruginosa R22; format: cell-based, Pseudomonas aeruginosa; conditions: for MIC: resazurin read-out
Description: as §1, §4

[13] = test system: P. aeruginosa R22; test: Biofilm formation assay (CLSM, COMSTAT); format: cell-based, Pseudomonas aeruginosa; conditions: 24 h
Description: To analyse the effect of test compounds on biofilm formation, solutions of test compounds in MH broth were inoculated (1:10) with P. aeruginosa R22 (standardised to 10^7 CFU/mL) in a Greiner glass-bottomed optical 96-well plate. The plate was then wrapped in parafilm and incubated (37 °C, 20 rpm) for 24 h. The supernatant was carefully removed and replaced with 10% v/v LIVE/DEAD stain in PBS prior to imaging. CLSM of Syto 9 (λex/λem maximum, 480/500 nm) and propidium iodide (λex/λem maximum, 490/635 nm) was performed using a Leica SP5 confocal microscope with ×63 lens (under oil) and a step size of 0.79 µm. Z-stack CLSM images were analysed using COMSTAT image analysis software and results were expressed as mean ± SEM (n = 15).

[14] = Two-compartment static dialysis bag model, diffusion; format: physicochemical; conditions: IC 10 mg/mL colistin base in PBS (5 mL), OC PBS (15 mL), 37 °C, 70 rpm, BCA assay, n = 3
Description: A two-compartment static dialysis bag model (adapted from Azzopardi et al.) was used to study the PK–PD profile of OligoG–colistin conjugates. First, the ability of the dialysis membrane to control diffusion of test compounds was assessed. […] The aseptically sealed beaker was incubated (37 °C, 70 rpm) for 48 h. Samples were collected at various time points from each compartment and stored at −20 °C prior to analysis of colistin content by BCA assay.

[15] = test system: K. pneumoniae KP05 506; format: cell-based, Klebsiella pneumoniae
Description: as §1, §2, §3

[16] = test system: P. aeruginosa NCTC 10662; format: cell-based, Pseudomonas aeruginosa; conditions: SI = IC50 (µg/mL, HK-2)/MIC (µg/mL)
Description: as §1

[17] = MTT cytotoxicity assay; format: cell-based; conditions: human, HK-2 cells, 72 h incubation, 0–1 mg/mL polymyxin base, ±SEM (n = 18), read-out: Half maximal inhibitory concentration (IC50), cytotoxicity
Description: A 3-(4,5-dimethylthiazol-2-yl)-2,5-diphenyltetrazolium bromide (MTT) assay was used to measure cell viability and proliferation of HK-2 cells. Cells were seeded into sterile 96-well microtitre plates at 1 × 10^5 cells/mL (100 µL/well) and allowed to adhere for 24 h at 37 °C. The following day, the old medium was replaced with test compounds (0–1 mg/mL polymyxin base) dissolved in filter-sterilised K-SFM. After 67 h incubation at 37 °C, filter-sterilised MTT solution (20 µL of a 5 mg/mL solution in PBS) was added to each well and incubated for a further 5 h at 37 °C. Finally, the medium was carefully removed, and the formazan crystals were solubilised in DMSO (100 µL) for 30 min. Absorbance was measured at 550 nm using a Fluostar Omega microplate reader. […] Data are expressed as mean ± SEM (n = 18).

[18] = test system: range of Gram-negative bacterial pathogens; test: MIC and selectivity index across the panel of isolates; format: cell-based; conditions: mean SI over the isolates of Table S4
Description: as §1

[19] = test system: E. coli NCTC 10418; format: cell-based, Escherichia coli; conditions: SI = IC50 (µg/mL, HK-2)/MIC (µg/mL)
Description: as §1

[20] = test system: E. coli PN21; test: MIC, broth microdilution; format: cell-based, Escherichia coli; conditions: SI = IC50 (µg/mL, HK-2)/MIC (µg/mL)
Description: as §1

[21] = in vivo; cited from earlier work
[22] = AS (artificial sputum) medium, resazurin read-out
[23] = MH broth (Table S7 comparison with AS medium)
[24] = alginate lyase in MH broth, 0 U/mL
[25] = alginate lyase in MH broth, 1 U/mL
[26] = alginate lyase in MH broth, 10 U/mL
[27] = pre-incubation with alginate lyase 0 U/mL (3 mg/mL in PBS pH 7, 37 °C, 24 h), then MIC in MH broth
[28] = pre-incubation with alginate lyase 1 U/mL (3 mg/mL in PBS pH 7, 37 °C, 24 h), then MIC in MH broth
[29] = pre-incubation with alginate lyase 10 U/mL (3 mg/mL in PBS pH 7, 37 °C, 24 h), then MIC in MH broth
[30] = broth microdilution, MH broth, 5 × 10^5 CFU/mL, 16–20 h, mode (n = 3)
[31] = MH broth + porcine stomach (type II) mucin 0.2% w/v, resazurin read-out
[32] = MH broth + porcine stomach (type II) mucin 2% w/v, resazurin read-out
[33] = MH broth, mucin 0%, resazurin read-out
[34] = MH broth + porcine stomach (type II) mucin 0.2% w/v
[35] = MH broth + porcine stomach (type II) mucin 2% w/v

colistin sulphate
MIC [1, 22]: 2 μg/mL Drug Base | MIC [1, 23]: 0.5 μg/mL Drug Base | MIC [1, 24]: 0.063 μg/mL Drug Base | MIC [1, 25]: 0.063 μg/mL Drug Base | MIC [1, 26]: 0.25 μg/mL Drug Base | MIC [1, 27]: 0.063 μg/mL Drug Base | MIC [1, 28]: 0.063 μg/mL Drug Base | MIC [1, 29]: 0.125 μg/mL Drug Base | increase in MIC values when mucin was added to the bacterial culture medium [2]: > 100 fold | concentration required for growth inhibition (up to >48 h) [3]: ≥ 8 × MIC | MIC [4, 22]: 1 μg/mL Drug Base | MIC [4, 23]: 0.25 μg/mL Drug Base | MIC [4, 24]: 0.002 μg/mL Drug Base | MIC [4, 25]: 0.004 μg/mL Drug Base | MIC [4, 26]: 0.004 μg/mL Drug Base | MIC [4, 27]: 0.002 μg/mL Drug Base | MIC [4, 28]: 0.002 μg/mL Drug Base | MIC [4, 29]: 0.002 μg/mL Drug Base | MIC [5, 24]: 0.00006 μg/mL Drug Base | MIC [5, 25]: 0.00006 μg/mL Drug Base | MIC [5, 26]: 0.0002 μg/mL Drug Base | MIC [5, 30]: <0.008 μg/mL Drug Base | MIC [5, 27]: 0.00006 μg/mL Drug Base | MIC [5, 28]: 0.001 μg/mL Drug Base | MIC [5, 29]: 0.0002 μg/mL Drug Base | MIC [6, 22]: 1 μg/mL Drug Base | MIC [6, 23]: 0.25 μg/mL Drug Base | MIC [7, 22]: 0.125 μg/mL Drug Base | MIC [7, 23]: 0.031 μg/mL Drug Base | MIC [8, 22]: 0.125 μg/mL Drug Base | MIC [8, 23]: 0.125 μg/mL Drug Base | MIC [8, 31]: 1 μg/mL Drug Base | MIC [8, 32]: 2 μg/mL Drug Base | MIC [8, 33]: 0.125 μg/mL Drug Base | MIC [9, 34]: 1 μg/mL Drug Base | MIC [9, 35]: 16 μg/mL Drug Base | MIC ([9]; MH broth, mucin 0%): 0.5 μg/mL Drug Base | MIC [10, 34]: 1 μg/mL Drug Base | MIC [10, 35]: 64 μg/mL Drug Base | reduction in viable bacterial counts after 4 h [11]: < 3 log10 CFU/mL | MIC [12, 34]: 2 μg/mL Drug Base | MIC [12, 35]: 16 μg/mL Drug Base | MIC ([12]; MH broth, mucin 0%): 0.5 μg/mL Drug Base | biofilm biomass compared to untreated control ([13]; 2 × MIC (colistin sulphate up to 2 × MIC), n = 15): no significant change | biofilm roughness ([13]; conjugates ≥MIC, colistin sulphate MIC, n = 15, p < 0.05): significantly increased | time at which 1 mg/mL in the OC was reached [14]: 2.83 h

CC[C@H](C)CCCCC(=O)N[C@@H](CCN)C(=O)N[C@H](C(=O)N[C@@H](CCN)C(=O)N[C@H]1CCNC(=O)[C@H]([C@@H](C)O)NC(=O)[C@H](CCN)NC(=O)[C@H](CCN)NC(=O)[C@H](CC(C)C)NC(=O)[C@@H](Cc2ccccc2)NC(=O)[C@H](CCN)NC1=O)[C@@H](C)O [Polymyxin B, polymyxin B] (X1-[Dab]T[Dab][Dab][Dab][dF]L[Dab][Dab]T; lactam 4-C (inferred); N-terminus assumed)
MIC [1, 22]: 4 μg/mL Drug Base | MIC [1, 23]: 0.5 μg/mL Drug Base | Selectivity index (SI) value ([1]; SI = IC50 (µg/mL, HK-2)/MIC (µg/mL), P. aeruginosa MDR 301): 22 | increase in MIC values when mucin was added to the bacterial culture medium [2]: > 100 fold | MIC [4, 22]: 0.5 μg/mL Drug Base | MIC [4, 23]: 0.125 μg/mL Drug Base | Selectivity index (SI) value ([4]; SI = IC50 (µg/mL, HK-2)/MIC (µg/mL), A. baumannii 7789): 88 | MIC [15, 22]: 1 μg/mL Drug Base | MIC [15, 23]: 0.125 μg/mL Drug Base | Selectivity index (SI) value ([15]; SI = IC50 (µg/mL, HK-2)/MIC (µg/mL), K. pneumoniae KP05 506): 88 | Selectivity index (SI) value [16]: 175 | MIC [5, 30]: <0.004 μg/mL Drug Base | IC50 at 72 h [17]: 11 µg/mL | Selectivity index (SI) value, Mean [18]: 66 | MIC [6, 22]: 1 μg/mL Drug Base | MIC [6, 23]: 0.25 μg/mL Drug Base | Selectivity index (SI) value ([6]; SI = IC50 (µg/mL, HK-2)/MIC (µg/mL), P. aeruginosa NH57388A): 44 | Selectivity index (SI) value [19]: 1 | MIC [7, 22]: 0.25 μg/mL Drug Base | MIC [7, 23]: 0.063 μg/mL Drug Base | Selectivity index (SI) value [20]: 3 | MIC [8, 22]: 0.125 μg/mL Drug Base | MIC [8, 23]: 0.5 μg/mL Drug Base | MIC [8, 31]: 1 μg/mL Drug Base | MIC [8, 32]: 4 μg/mL Drug Base | MIC [8, 33]: 0.5 μg/mL Drug Base | MIC [9, 34]: 1 μg/mL Drug Base | MIC [9, 35]: 16 μg/mL Drug Base | MIC ([9]; MH broth, mucin 0%): 0.125 μg/mL Drug Base | Selectivity index (SI) value ([9]; SI = IC50 (µg/mL, HK-2)/MIC (µg/mL), A. baumannii MDR ACB): 88 | MIC [10, 34]: 4 μg/mL Drug Base | MIC [10, 35]: 64 μg/mL Drug Base | MIC ([10]; MH broth, mucin 0%): 0.125 μg/mL Drug Base | Selectivity index (SI) value ([10]; SI = IC50 (µg/mL, HK-2)/MIC (µg/mL), K. pneumoniae IR25): 88 | MIC [12, 34]: 4 μg/mL Drug Base | MIC [12, 35]: 64 μg/mL Drug Base | MIC ([12]; MH broth, mucin 0%): 0.25 μg/mL Drug Base | Selectivity index (SI) value ([12]; SI = IC50 (µg/mL, HK-2)/MIC (µg/mL), P. aeruginosa R22): 44

colistimethate sodium
plasma colistin concentration at steady-state [21]: 0.5 to 4 µg/mL
